Measurements taken from patent US7247317B2, “Compositions comprising phenylaminothiophenacetic acid derivatives for the treatment of acute or adult respiratory distress syndrome (ARDS) and infant respiratory distress syndrome (IRDS)” (Altana Pharma AG, priority 1998, dated 2007).

System: Sprague Dawley rats
Assay: Lung lavage model of ARDS in ventilated rats: arterial oxygen partial pressure (PaO2)
Format: in vivo, rat
Conditions: for PaO2: 120 min, mean ± SD
Source text: Anesthetized Sprague Dawley rats are artificially ventilated with pure oxygen and a positive endexiratory pressure (PEEP; in order to ensure oxygenation of the rats) and lavaged until their endogenous lung surfactant is washed out [D. Häfner, R. Beume, U. Kilian, G. Kraznai and Burkhard Lachmann: Dose-response comparison of five lung surfactant (LSF) preparations in an animal model of adult respiratory distress syndrome (ARDS); D. Häfner, P.-G. Germann, D. Hauschke, Pulmonary Pharmacology (1994) 7, 319-332]. This is manifested by the fact that in the animals the preliminary values of the arterial oxygen partial pressure (PaO2) of 500-550 mmHg (in the case of pure oxygen ventilation and PEEP) decrease to values of 50-110 mmHg. Animals of the control group which are not treated with lung surfactant remain with their PaO2 at these low values throughout the observation period. 60 minutes after the PaO2 has decreased to these values, lung surfactant or lung surfactant together with 4-(2,6-dichloroanilino)-3-thiopheneacetic acid is instilled intratracheally. The blood gases are determined 30, 60, 90 and 120 minutes after instillation.
In Table 1 below, in line A the average values (± standard deviation) of the PaO2 are indicated in mmHg for the time 120 minutes (constant PEEP of 8 cm H2O) after intratracheal instillation of lung surfactant 1 h after the last lavage. The table contains data about the values after a sole i.v. administration of 4-(2,6-dichloroanilino)-3-thiopheneacetic acid (Eltenac) in comparison to untreated controls. It can be seen from the table that the sole administration of Eltenac has no influence on the PaO2. This follows by comparison with the untreated control animals. The administration of lung surfactant (25 or 100 mg/kg) leads to a rise in the PaO2. […] In Table 2, in line A the PaO2 values after joint intratracheal (i.tr.) administration of lung surfactant together with Eltenac are indicated in increasing dosages. […]

SMILES: O=C(O)Cc1cscc1Nc1c(Cl)cccc1Cl [Eltenac, 4-(2,6-dichloroanilino)-3-thiopheneacetic acid]
- PaO2 (Eltenac i.tr. 3.0 mg/kg alone after last lavage): 92 ± 69 mmHg
- PaO2 (Eltenac i.v. 22.1 mg/kg alone, directly after lavage, PEEP 8 cm H2O): 82 ± 35 mmHg
- influence on the PaO2 (in words) (sole administration of Eltenac vs untreated control animals): no influence
